Data reported in patent US11548883B2, “Compounds as autotaxin inhibitors and pharmaceutical compositions comprising the same” (LegoChem Biosciences, Inc., priority 2017, dated 2023).
Structures can show the parent of a compound that is named as a salt.

Columns and labels:
human ENPP2 = human ENPP2 (Homo sapiens (Human), UniProt Q13822); test: Inhibitory activity on human ENPP2 (FS-3 assay); format: biochemical; conditions: human ENPP2, FS-3 substrate, Table 2
Method: Two-fold dilution of each test compound solution (10 μM, 100% dimethyl sulfoxide) is carried out on 96-well V bottom plate (Costar 3363). After ten-fold dilution of each the test compound solution (100% dimethyl sulfoxide) with deionized distilled water, 10 μL of the diluted each compound solution (10% dimethyl sulfoxide) was aliquoted to a black flat bottom 96-well plate (Costar 3915).

[1] = system: LPA production in blood serum; test: Inhibitory activity on LPA production in mouse blood serum; format: biochemical; conditions: mouse blood serum (m), 18:1 LPC added

SMILES	IC50 (human ENPP2)	IC50 [1]
O=C(Cn1cc(-c2cnc(NC3Cc4ccccc4C3)nc2)c(OCCN2CCNCC2)n1)N1CCc2[nH]nnc2C1 [Compound 67, 2-(4-{2-[(2,3-dihydro-1H-inden-2-yl)amino]pyrimidin-5-yl}-3-[2-(piperazin-1-yl)ethoxy]-1H-pyrazol-1-yl)-1-{1H,4H,5H,6H,7H-[1,2,3]triazolo[4,5-c]pyridin-5-yl}ethan-1-one]	6.1 nM	–
O=C(Cn1cc(-c2cnc(NC3Cc4ccccc4C3)nc2)c(CN2CCc3ccccc3C2)n1)N1CCc2[nH]nnc2C1 [Compound 84, 2-(4-{2-[(2,3-dihydro-1H-inden-2-yl)amino]pyrimidin-5-yl}-3-(1,2,3,4-tetrahydroisoquinolin-2-ylmethyl)-1H-pyrazol-1-yl)-1-{1H,4H,5H,6H,7H-[1,2,3]triazolo[4,5-c]pyridin-5-yl}ethan-1-one]	2.8 nM	8 nM
O=C(Cn1cc(-c2cnc(NC3Cc4ccccc4C3)nc2)c(OC2CCNCC2)n1)N1CCc2[nH]nnc2C1 [Compound 69, 2-(4-{2-[(2,3-dihydro-1H-inden-2-yl)amino]pyrimidin-5-yl}-3-(piperidin-4-yloxy)-1H-pyrazol-1-yl)-1-{1H,4H,5H,6H,7H-[1,2,3]triazolo[4,5-c]pyridin-5-yl}ethan-1-one]	4 nM	–
O=C1CNCCN1Cc1nn(CC(=O)N2CCc3[nH]nnc3C2)cc1-c1cnc(NC2Cc3ccccc3C2)nc1 [Compound 88, 1-[(4-{2-[(2,3-dihydro-1H-inden-2-yl)amino]pyrimidin-5-yl}-1-(2-oxo-2-{1H,4H,5H,6H,7H-[1,2,3]triazolo[4,5-c]pyridin-5-yl}ethyl)-1H-pyrazol-3-yl)methyl]piperazin-2-one]	4.1 nM	–
O=C(Cn1cc(-c2cnc(NC3Cc4ccccc4C3)nc2)c(C(=O)N2CCNCC2)n1)N1CCc2[nH]nnc2C1 [Compound 77, 2-(4-{2-[(2,3-dihydro-1H-inden-2-yl)amino]pyrimidin-5-yl}-3-(piperazine-1-carbonyl)-1H-pyrazol-1-yl)-1-{1H,4H,5H,6H,7H-[1,2,3]triazolo[4,5-c]pyridin-5-yl}ethan-1-one hydrochloride]	6.5 nM	–
O=C(Cn1cc(-c2cnc(NC3Cc4ccccc4C3)nc2)c(CN2CCC(F)(F)CC2)n1)N1CCc2[nH]nnc2C1 [Compound 85, 2-{3-[(4,4-difluoropiperidin-1-yl)methyl]-4-{2-[(2,3-dihydro-1H-inden-2-yl)amino]pyrimidin-5-yl}-1H-pyrazol-1-yl}-1-{1H,4H,5H,6H,7H-[1,2,3]triazolo[4,5-c]pyridin-5-yl}ethan-1-one hydrofluoride]	2.2 nM	–
CCN1CCC(Oc2nn(CC(=O)N3CCc4[nH]nnc4C3)cc2-c2cnc(NC3Cc4ccccc4C3)nc2)CC1 [Compound 70, 2-(4-{2-[(2,3-dihydro-1H-inden-2-yl)amino]pyrimidin-5-yl}-3-[(1-ethylpiperidin-4-yl)oxy]-1H-pyrazol-1-yl)-1-{1H,4H,5H,6H,7H-[1,2,3]triazolo[4,5-c]pyridin-5-yl}ethan-1-one]	2.3 nM	11 nM
O=C(Cc1nnc(-c2cnc(NC3Cc4ccccc4C3)nc2)[nH]1)N1CCc2[nH]nnc2C1 [Compound 52, 2-(5-{2-[(2,3-dihydro-1H-inden-2-yl)amino]pyrimidin-5-yl}-4H-1,2,4-triazol-3-yl)-1-{1H,4H,5H,6H,7H-[1,2,3]triazolo[4,5-c]pyridin-5-yl}ethan-1-one]	3.6 nM	–
O=C(O)COc1nn(CC(=O)N2CCc3[nH]nnc3C2)cc1-c1cnc(NC2Cc3ccccc3C2)nc1 [Compound 73, 2-[(4-{2-[(2,3-dihydro-1H-inden-2-yl)amino]pyrimidin-5-yl}-1-(2-oxo-2-{1H,4H,5H,6H,7H-[1,2,3]triazolo[4,5-c]pyridin-5-yl}ethyl)-1H-pyrazol-3-yl)oxy]acetic Acid]	3.7 nM	69 nM
O=C(Cn1cc(-c2cnc(NC3Cc4ccccc4C3)nc2)cn1)Nc1ccc2[nH]c(=O)oc2c1 [Compound 57, 2-(4-{2-[(2,3-dihydro-1H-inden-2-yl)amino]pyrimidin-5-yl}-1H-pyrazol-1-yl)-N-(2-oxo-2,3-dihydro-1,3-benzoxazol-6-yl)acetamide]	2 nM	–
CCc1cc(-c2cnc(NC3Cc4ccccc4C3)nc2)nn1CC(=O)N1CCc2[nH]nnc2C1 [Compound 54, 2-(3-{2-[(2,3-dihydro-1H-inden-2-yl)amino]pyrimidin-5-yl}-5-ethyl-1H-pyrazol-1-yl)-1-{1H,4H,5H,6H,7H-[1,2,3]triazolo[4,5-c]pyridin-5-yl}ethan-1-one]	15.8 nM	–
O=C(Cn1cc(-c2cnc(NC3Cc4ccccc4C3)cn2)cn1)N1CCc2[nH]nnc2C1 [Compound 59, 2-(4-{5-[(2,3-dihydro-1H-inden-2-yl)amino]pyrazin-2-yl}-1H-pyrazol-1-yl)-1-{1H,4H,5H,6H,7H-[1,2,3]triazolo[4,5-c]pyridin-5-yl}ethan-1-one]	11.1 nM	–
O=C(Cn1cc(-c2ccc(NC3Cc4ccccc4C3)nc2)cn1)N1CCc2[nH]nnc2C1 [Compound 58, 2-(4-{6-[(2,3-dihydro-1H-inden-2-yl)amino]pyridin-3-yl}-1H-pyrazol-1-yl)-1-{1H,4H,5H,6H,7H-[1,2,3]triazolo[4,5-c]pyridin-5-yl}ethan-1-one]	3.5 nM	–
CN1CCN(Cc2nn(CC(=O)N3CCc4[nH]nnc4C3)cc2-c2cnc(NC3Cc4ccccc4C3)nc2)CC1=O [Compound 87, 4-[(4-{2-[(2,3-dihydro-1H-inden-2-yl)amino]pyrimidin-5-yl}-1-(2-oxo-2-{1H,2H,3H,4H,5H,6H,7H-[1,2,3]triazolo[4,5-c]pyridin-5-yl}ethyl)-1H-pyrazol-3-yl)methyl]-1-methylpiperazin-2-one]	3.1 nM	–
O=C(Cc1nnc(-c2cnc(NC3Cc4ccccc4C3)nc2)o1)Nc1ccc(C(=O)O)cc1 [Compound 50, 4-[2-(5-{2-[(2,3-dihydro-1H-inden-2-yl)amino]pyrimidin-5-yl}-1,3,4-oxadiazol-2-yl)acetamido]benzoic Acid]	4.5 nM	–
O=C(Cc1nnc(-c2cnc(NC3Cc4ccccc4C3)nc2)o1)N1CCc2[nH]nnc2C1 [Compound 33, 2-(5-(2-((2,3-dihydro-1H-inden-2-yl)amino)pyrimidin-5-yl)-1,3,4-oxadiazol-2-yl)-1-(1,4,6,7-tetrahydro-5H-[1,2,3]triazolo[4,5-c]pyridin-5-yl)ethan-1-one]	2 nM	–
CCc1c(-c2cnc(NC3Cc4ccccc4C3)nc2)cnn1CC(=O)N1CCc2[nH]nnc2C1 [Compound 78, 2-(4-{2-[(2,3-dihydro-1H-inden-2-yl)amino]pyrimidin-5-yl}-5-ethyl-1H-pyrazol-1-yl)-1-{1H,4H,5H,6H,7H-[1,2,3]triazolo[4,5-c]pyridin-5-yl}ethan-1-one]	2.4 nM	–
CCOc1nn(CC(=O)N2CCc3[nH]nnc3C2)cc1-c1cnc(NC2Cc3ccccc3C2)nc1 [Compound 61, 2-(4-{2-[(2,3-dihydro-1H-inden-2-yl)amino]pyrimidin-5-yl}-3-ethoxy-1H-pyrazol-1-yl)-1-{1H,4H,5H,6H,7H-[1,2,3]triazolo[4,5-c]pyridin-5-yl}ethan-1-one]	–	25 nM
O=C(Cn1cc(-c2cnc(NC3Cc4ccccc4C3)nc2)c(OCc2ccccc2)n1)N1CCOCC1 [Compound 64, 2-[3-(benzyloxy)-4-{2-[(2,3-dihydro-1H-inden-2-yl)amino]pyrimidin-5-yl}-1H-pyrazol-1-yl]-1-(morpholin-4-yl)ethan-1-one]	3 nM	–
O=C(O)C1=CCN(C(=O)Cc2nnc(-c3cnc(NC4Cc5ccccc5C4)nc3)o2)CC1 [Compound 48, 1-[2-(5-{2-[(2,3-dihydro-1H-inden-2-yl)amino]pyrimidin-5-yl}-1,3,4-oxadiazol-2-yl)acetyl]-1,2,3,6-tetrahydropyridine-4-carboxylic Acid]	13.3 nM	–
O=C(Cn1cc(-c2cnc(NC3Cc4ccccc4C3)nc2)c(CN2CCc3ccccc32)n1)N1CCc2[nH]nnc2C1 [Compound 83, 2-(4-{2-[(2,3-dihydro-1H-inden-2-yl)amino]pyrimidin-5-yl}-3-(2,3-dihydro-1H-indol-1-ylmethyl)-1H-pyrazol-1-yl)-1-{1H,4H,5H,6H,7H-[1,2,3]triazolo[4,5-c]pyridin-5-yl}ethan-1-one]	2.1 nM	–
O=C(Cn1cc(-c2cnc(NC3Cc4ccccc4C3)nc2)c(CN2CC=C(c3ccccc3)CC2)n1)N1CCc2[nH]nnc2C1 [Compound 86, 2-(4-{2-[(2,3-dihydro-1H-inden-2-yl)amino]pyrimidin-5-yl}-3-[(4-phenyl-1,2,3,6-tetrahydropyridin-1-yl)methyl]-1H-pyrazol-1-yl)-1-{3H,4H,5H,6H,7H-[1,2,3]triazolo[4,5-c]pyridin-5-yl}ethan-1-one]	3 nM	–
O=C(Cn1cc(-c2cnc(NC3Cc4ccccc4C3)nc2)c(C(=O)N2CCCCC2)n1)N1CCc2[nH]nnc2C1 [Compound 76, 2-(4-{2-[(2,3-dihydro-1H-inden-2-yl)amino]pyrimidin-5-yl}-3-(piperidine-1-carbonyl)-1H-pyrazol-1-yl)-1-{1H,4H,5H,6H,7H-[1,2,3]triazolo[4,5-c]pyridin-5-yl}ethan-1-one]	3 nM	–
CN1C(=O)N(c2ccc3[nH]nnc3c2)C2(CCN(C(=O)c3cnc(NCc4cccc(OC(F)(F)F)c4)nc3)CC2)C1=O [Compound 9, 1-(1H-1,2,3-benzotriazol-5-yl)-3-methyl-8[2-({[3-(trifluoromethoxy)phenyl]methyl}amino)pyrimidine-5-carbonyl]-1,3,8-triazaspiro[4,5]-decane-2,4-dione]	9 nM	–
O=C(Cn1cc(-c2cnc(NC3Cc4ccccc4C3)nc2)c(OC2CCN(CC(F)F)CC2)n1)N1CCc2[nH]nnc2C1 [Compound 71, 2-(3-{[1-(2,2-difluoroethyl)piperidin-4-yl]oxy}-4-{2-[(2,3-dihydro-1H-inden-2-yl)amino]pyrimidin-5-yl}-1H-pyrazol-1-yl)-1-{1H,4H,5H,6H,7H-[1,2,3]triazolo[4,5-c]pyridin-5-yl}ethan-1-one]	3.6 nM	–
